The text below walks through data of US20070160691A1, “Pharmaceutical composition for treating and preventing cancer comprising cinnamoni cortex extract and zizyphi fructus extract” (KOREA RESEARCH INSTITUTE OF BIOSCIENCE AND BIOTECH, priority 2003, published 2007).

Experiment [1] deals with MDA-MB-231 breast cancer cells. The experiment can be described thus: DNA fragmentation (apoptosis induction), agarose gel electrophoresis. As to conditions: MDA-MB-231 cells, 10 μM and 30 μM HCA, 48 hrs, compared to DMSO; FIG. 1. In kind it is cell-based. As for the experimental part: (§1) MDA-MB-231 breast cancer cells and SW620 colon cancer cells were seeded onto 100-mm culture dishes at densities of 1×10^6 and 2×10^6 cells, respectively. After 18 hrs, the cells were treated with 10 μM and 30 μM of 2′-hydroxycinnamaldehyde(HCA) and further cultured for 48 hrs.
(§2) Then, to analyze DNA cleavage by the HCA treatment, the cells were lysed using RIPA buffer (50 mM Tris-HCl, pH 7.4, 150 mM NaCl, 5 mM EDTA, 1% NP-40, 1 mM sodium vanadate, 0.5% sodium deoxycholate, and 0.05% sodium deoxysulfate). The cell lysates were centrifuged at 13,000 rpm. The supernatants were subjected to phenol extraction to remove proteins, and the nucleic acid layers were recovered. Potassium acetate was added to each nucleic acid layer in a final concentration of 50 mM, and an equal volume of isopropyl alcohol was added thereto to precipitate nucleic acids. The precipitated nucleic acids were washed with 80% ethanol and dried. The dried nucleic acids were dissolved in 30 μl of TE buffer, and treated with Dnase-free RNase at 37° C. for 1 hr to remove RNA.
(§3) The resulting DNA samples were electrophoresed on a 1.5% agarose gel to investigate DNA fragmentation by HCA.

Another experiment relates to SW620 colon cancer cells. Described as above. In kind it is cell-based, human. Conditions: 10 μM and 30 μM HCA, 48 hrs, compared to DMSO, FIG. 1. As for the experimental part: as §1, §2, §3
Experiment [2] relates to PARP (poly(ADP-ribose) polymerase) in MDA-MB-231 breast cancer cells. The experiment can be described thus: PARP cleavage by Western blotting. As to conditions: MDA-MB-231 cells, 10 μM and 30 μM HCA, 48 hrs, compared to DMSO; FIG. 2. In kind it is cell-based. As for the experimental part: (§4) MDA-MB-231 breast cancer cells and SW620 colon cancer cells were seeded onto 100-mm culture dishes at densities of 1×10^6 and 2×10^6 cells, respectively. After 18 hrs, the cells were treated with 10 μM and 30 μM of HCA and further cultured for 48 hrs.
(§5) Then, to analyze PARP (poly(ADP-ribose) polymerase) cleavage by the HCA treatment, the cells were lysed using RIPA buffer (50 mM Tris-HCl, pH 7.4, 150 mM NaCl, 5 mM EDTA, 1% NP-40, 1 mM sodium vanadate, 0.5% sodium deoxycholate, and 0.05% sodium deoxysulfate). The cell lysates were centrifuged at 13,000 rpm and the supernatants were recovered. In the supernatants, protein concentrations were determined using a Bradford reagent (Bio-Rad Protein Assay, USA). Protein samples of 30 μg were separated on a 7.5% SDS-PAGE (SDS-polyacrylamide gel electrophoresis) gel. Proteins were then electro-transferred onto a PVDF membrane. The blot was blocked using 5% skim milk in TBST (50 mM Tris-HCl, pH 7.6, 150 mM NaCl, 0.1% Tween 20). Intracellular PARP was detected using a PARP-specific antibody (Cell signaling Technology, USA), a HRP (horse radish peroxidase)-conjugated secondary antibody, and a chemiluminescence POD reagent (Roche, Germany).
(In general: In western blotting, separated proteins are transferred to a membrane and probed.)

Experiment [3] concerns PARP (poly(ADP-ribose) polymerase) in SW620 colon cancer cells. The experiment can be described thus: PARP cleavage by Western blotting. It is filed as cell-based, human. Conditions: 10 μM and 30 μM HCA, 48 hrs, compared to DMSO, FIG. 2. As for the experimental part:
as §4, §5

The subject of experiment [4] is MDA-MB-231 breast cancer cells. Put plainly: Cancer cell migration assay in Boyden chamber. As to conditions: 6 hrs, FIG. 3. In kind it is cell-based. As for the experimental part:
Cultured MDA-MB-231 breast cancer cells were detached from culture dishes using a trypsin/EDTA solution (Gifco, USA), neutralized with trypsin inhibitor (0.5 mg/ml, Sigma, USA), and washed twice with culture medium. The cells were then counted using a hematocytometer. Cell migration was assayed using a Boyden chamber. HCA was added to a lower compartment of the Boyden chamber through holes with concentrations of 0 μM, 1 μM, 5 μM and 10 μM. After the lower compartment of the Boyden chamber was covered with a polycarbonate membrane (8 μm pore, Neuro Probe, Inc, USA), an upper compartment of the Boyden chamber was assembled with the lower compartment, and […] MDA-MB-231 cells were inoculated in the upper compartment through holes. After the Boyden chamber was incubated in an incubator for 6 hrs, the membrane was immersed in methanol to fix the cells. Then, the membrane was air-dried, stained with a 10% Girkmsa staining solution (Sigma, USA)for 1 hr, and destained with water for 10 sec. Herein, after non-migratedcells (an upper side of the membrane) were removed using a swab, migrated cells (a lower side of the membrane) were counted under a microscope.

Bounds are passed on as bounds.

In general, inhibition refers to the share of the control response that was lost under treatment. A low value points to a response near the control. `O=C/C=C/c1ccccc1O` [HCA, 2′-hydroxycinnamaldehyde]: the “DNA fragmentation by HCA” value (in experiment [1]; in the experiment with SW620 colon cancer cells) was “fragmentation of chromosonal DNA into uniform DNA fragments” in each case. In addition, the PARP cleavage entry is “a decrease in normal full-length PARP (116 kDa) and an increase in cleaved PARP (89 kDa)” in experiment [2]; “a decrease in normal full-length PARP (116 kDa) and an increase in cleaved PARP (89 kDa)” in experiment [3]. In addition, the inhibition at 30 µM in experiment [4] (Homo sapiens, MDA-MB-231, at 30 μM) was over 50%. Also, in experiment [4] (at 5 μM), the “inhibition of cell migration” value is “inhibited cell migration”.
